As for `O=Cc1cnc2n1CCc1ccccc1C2=C1CCN(CCc2ccc(OCc3ccc4ccccc4n3)cc2)CC1`, the melting point (as a rule, the temperature of the solid-liquid transition) came out at 194 °C.

For `Nc1nc2c(Cc3ccccn3)c[nH]c2c(=O)[nH]1`, the melting point lay within 280 to 282 °C.

`CCc1cc(Br)cc(CC)c1N=C(c1ccccc1)c1ccccc1`: the melting point was found to be 112 °C.

As to `CCOC=Nc1ccc2nnc(-c3ncc([N+](=O)[O-])n3C)n2n1`, the melting point was 134 to 135 °C.

On to `CC(C)(C)OC(=O)NCC12CCC1CN(Cc1ccccc1)C2` (stereo not given), for which the melting point lay in the range of 78 to 79 °C.

Compound `COc1ccc2oc(S(=O)(=O)c3ccc(=O)[nH]n3)cc2c1` yielded a melting point of 222 to 223 °C.

`Cc1oc2cc(C3CC(=O)N(C4CC4)C(=O)C3)ccc2c1C`: the melting point was 180 to 182 °C.

Compound `CC(C)(C)OC(=O)NCC(=O)N1[C@@H](C(=O)OC(C)(C)C)C[C@H](C(=O)O)[C@H]1c1ccccc1` (racemic) had a melting point of 105 °C.

In turn, `O=C(Oc1ccccc1)c1cccc([N+](=O)[O-])c1Cl` returned a melting point of 46 to 48 °C.

Compound `CC(=O)N(C)c1ccc2c(c1)cc(C(=O)c1ccc(C)cc1)n2C` displayed a melting point of 193 to 195 °C.

`CCNC(=O)c1cc(Cl)ccc1Br` yielded a melting point of 98 to 99 °C.

Consider `CC(=O)Nc1nc(OS(=O)(=O)c2ccccc2)ncc1F`, for which the melting point was 142 to 143 °C.

On to `Cc1ccc(CCCNCC(O)c2cccc(C(F)(F)F)c2)cc1` (stereo not given), for which the melting point lay in the range of 52 to 55 °C.

Compound `N=C1SCCN1c1ccc(C(F)(F)F)cc1[N+](=O)[O-]` displayed a melting point of 153 °C.

`COC(=O)/C=C/n1cnc2ccc(OC)cc2c1=O` returned a melting point of 184 to 186 °C.

Consider `CCOc1ccc(-c2nc(-c3cc(C(=O)O)c(O)cc3O)cs2)cc1OCC`, for which the melting point is 233 to 234 °C.

Turning to `O=C1OC(Cl)(c2ccc(Cl)cc2)c2ccccc21` (stereo not given), the melting point was in the range of 133 to 135 °C.

`COC(=O)CCCCCCNC(=O)c1cn2c3c(cccc13)CCC2` came in with a melting point of 66 to 67 °C.

On to `CN1C(=O)C2(COc3cc4c(cc32)OCCO4)c2c(C(=O)NC3CCCCC3)cccc21` (stereo not given), for which the melting point lay in the range of 139 to 140 °C.

For the compound `Fc1ccc(-c2cc3cccc(Cl)n3n2)cc1`, the melting point was 156 to 157 °C.

The compound `Fc1nc(F)c(F)c(F)n1` gave a melting point of 104 °C.

With `CC(C)(C)Nc1nc2cc(CC(=O)O)ccc2o1`, the melting point was 175 to 176 °C.

Take `O=C(CN1CCOCC1)Nc1cccc2c1C(=O)c1c-2n[nH]c1-c1ccc(N2CCOCC2)cc1`: the melting point was determined as 258 °C.

`CC1Cc2cc(S(=O)(=O)n3cc(-c4ccccc4)[nH]c3=O)ccc2N1C(=O)c1ccc(NC(=O)CCl)cc1` (stereo not given) registered a melting point of 246 °C.

Compound `COc1cc2c(cc1Cl)CC(C)OC2c1ccc([N+](=O)[O-])cc1` (stereo not given) returned a melting point of 118 to 120 °C.

Turning to `CS(=O)(=O)c1ccc(-c2cc(C#N)sc2-c2ccc(F)cc2)cc1`, the melting point fell in the range of 139 to 140 °C.

In the case of `CCCN(CCC)c1nc2c(c(-c3c(C)cc(C)cc3C)cn2C)c(=O)n1C`, the melting point lay within 100 to 102 °C.

In turn, `Clc1ccc(C2Cc3cnc4[nH]ncc4c3-c3ccccc32)cc1Cl` (stereo not given) displayed a melting point of 76 to 78 °C.

`COc1nc(C)c(C(C)O)cc1NC(=O)N1CCN(c2cccc(C)c2C)CC1` (stereo not given) registered a melting point of 100 to 102 °C.

`COCCOc1ccc(-c2sc(N)c(C(=O)c3ccc(Cl)cc3)c2CN(C2CCCCC2)C2CCCCC2)cc1` showed a melting point of 162 to 164 °C.

`O=C(NCCc1c[nH]cn1)c1ccccc1NS(=O)(=O)c1cccc(C(F)(F)F)c1` gave a melting point of 160 to 163 °C.

For the compound `Brc1cccc(C2Cc3cnc(Nc4ccc(CCNCCN5CCCC5)cc4)nc3-c3ccccc32)c1` (stereo not given), the melting point lay in the range of 83 to 85 °C.

The compound `CCCCNC(P(=O)(O)O)P(=O)(O)O` displayed a melting point of 188 to 189 °C.

`Cc1cc(C)cc(-c2ccc3c(c2)CC[C@H]2N(C)C(=O)CC[C@]32C)c1` came in with a melting point of 129 to 130 °C.

`CCOC(=O)C1=C(C)NC(N)=C(C(=O)OC(C)C)C1c1ccccc1[N+](=O)[O-]` (stereo not given) came in with a melting point of 139 °C.

Consider `CC(C)(C)NC(=O)c1cc(Br)c(Br)s1`, for which the melting point amounted to 190 °C.

The compound `CC1(C(=O)C(C(O)C(Cl)(Cl)Cl)n2cncn2)CC1` (stereo not given) showed a melting point of 216 to 218 °C.

In turn, `CC(C)(C)OC(=O)[C@H]1N=CSC[C@]1(O)C(F)(F)F` came in with a melting point of 126 to 128 °C.

Regarding `CCCCCCCCOC(=O)/C=C/c1ccccc1C1C(C(=O)OCC)=C(C)NC(C)=C1C(=O)OCC`, the melting point is 110 to 112 °C.

Consider `Cn1c2ccccc2c2oc(C#N)cc(=O)c21`, for which the melting point lay in the range of 190 to 192 °C.

Turning to `COc1cc(C(C)=O)ccc1OCCCN1CCC(c2n[nH]c3ccccc23)CC1`, the melting point was in the range of 171 to 173 °C.

The compound `CC(C)=CC1CC(C)=C(C)C2C(=O)OC(=O)C12` (stereo not given) gave a melting point of 78 to 82 °C.

For `O=C(CCCC1CCCCC1)N1C(=O)OC[C@@H]1Cc1ccccc1`, the melting point fell in the range of 69 to 70 °C.

Compound `CCN(CC(=O)O)c1ccc(C=O)cc1[N+](=O)[O-]` registered a melting point of 90 °C.

On to `O=C(c1ccc(Cl)cc1)c1cccnc1N1CCCCC1=O`, for which the melting point fell in the range of 154 to 156 °C.

The compound `CCCn1c(=O)n2c(-c3ccc(C(=O)O)cc3)nnc2c2c1ncn2C` came in with a melting point greater than 315 °C.

As for `CC(=O)N(c1nc2cc3nc(N(C(C)=O)N4CCN(C)CC4)sc3cc2s1)N1CCN(C)CC1`, the melting point fell in the range of 256 to 258 °C.

As for `CCCCCS(=O)(=O)NC(=O)CCc1ccc(OCCC2(C)OCCO2)cc1Oc1ncc(C(F)(F)F)cc1Cl`, the melting point fell in the range of 96.5 to 97.5 °C.

With `Cc1cc(-c2nnn(C)n2)cc(C)c1OCCCC(N)=O`, the melting point lay within 155 to 156 °C.

For the compound `O=c1[nH]c2cnccc2c2nc(-c3ccccc3F)nn12`, the melting point lay in the range of 285 to 287 °C.

In turn, `CCOCc1nc2c(N)nc3c(c2n1NCCCNC(=O)N1CCOCC1)CCCC3` gave a melting point of 152 to 154 °C.

The compound `COCC(C#N)=Cc1ccc(OC)c(OC)c1` had a melting point of 82 to 83 °C.

Consider `CCOC(=O)c1cnc2ccc(OC)cc2c1O`, for which the melting point was greater than 260 °C.

`CCOC(=O)/C=C/c1ccc(OCOC)cc1Oc1ncc(C(F)(F)F)cc1Cl` displayed a melting point of 73.5 to 74.5 °C.

On to `CC1=NC(C)(COc2ccc(NC(=O)c3cc(F)cc(N4CCOCC4)c3)c3ccccc23)CO1` (stereo not given), for which the melting point lay within 203 to 206 °C.

`NC1=NN(c2cccc(F)c2)CC1` had a melting point of 146 to 147 °C.

Compound `COc1cc(C(=O)NC2CC2)c(Cl)cc1O` registered a melting point of 214 to 216 °C.

The compound `CCOC(=O)CCc1cccc2c(=O)c3cc(C(=O)OC)c(OCCCCC=Cc4ccc(OC)cc4)cc3oc12` registered a melting point of 107 to 109 °C.

Compound `Cc1cc2c(cc1-c1cc(C=CC(=O)O)ccc1F)C(C)(C)CCC2(C)C` showed a melting point of 181 to 183 °C.

The compound `Cc1nn(C)c2c1N(C(=O)CN1CCCCC1)c1ccccc1NC2=O` returned a melting point of 156 to 158 °C.

As for `COc1ccc(Oc2c([N+](=O)[O-])cc(C(=O)O)cc2S(N)(=O)=O)cc1`, the melting point lay within 229 to 230 °C.

`CCOC(=O)CN1CC[C@@H](O)C1=O` gave a melting point of 84 to 85 °C.

Compound `CC(C)=NOCc1nc2c(N)nc(C)c(C)c2n1CCCCNS(C)(=O)=O` came in with a melting point of 157 to 159 °C.

In turn, `O=S(=O)(c1ccc(Cl)cc1)C(c1ccc(C2OCCO2)cn1)c1cc(F)ccc1F` (stereo not given) yielded a melting point of 167 to 168 °C.

Take `CCOC(=O)c1cn2c(ccc3c(Cl)cccc32)n1`: the melting point was in the range of 193 to 194 °C.

Regarding `C[C@H](NC(=O)CCSC(=O)c1ccccc1)C(=O)O`, the melting point lay in the range of 99 to 100 °C.

As to `CCOC(=O)C1=C(COCCNS(=O)(=O)c2ccc(Cl)nc2)NC(C)=C(C(=O)OC)C1c1ccccc1Cl` (stereo not given), the melting point is 140 °C.

For `O=C1CC(O)CC(CCc2c(Cl)cc(Cl)cc2OCc2ccc(C(F)(F)F)cc2)O1` (stereo not given), the melting point was in the range of 104 to 105 °C.

Compound `N#CC1CN1C(=O)c1ccco1` (stereo not given) came in with a melting point of 73 to 76 °C.

`COc1ccccc1C1(C(=O)O)CCCC1` returned a melting point of 116 to 124 °C.

With `CCCCN(CCO)c1cccc(O)c1`, the melting point was in the range of 45 to 47 °C.

As to `CC(=O)c1ccc(Cc2c(Cl)cc(N3N=CCNC3=O)cc2Cl)cc1`, the melting point is 189 to 190 °C.

`CC(C)(C)OC(=O)N1CC[C@H]2c3c(-c4ccccc4F)cccc3N(C(=O)OC(C)(C)C)[C@H]2CC1` (relative stereo): the melting point lay within 166 to 169 °C.

Compound `Brc1cncc(OCc2ccccc2)c1` registered a melting point of 65 to 67 °C.

Turning to `CCCc1c2nc(C(=O)OCC)cc(OCC)c2cc2c(=O)cc(C(=O)OCC)oc12`, the melting point fell in the range of 190 to 192 °C.

`Cc1noc(NS(=O)(=O)c2cccc(Cl)c2)c1Br` gave a melting point of 132 to 134 °C.

Consider `Clc1ccc(-c2cnc3cc4cn[nH]c4cc3n2)s1`, for which the melting point is greater than 300 °C.

`O=C(O)C(Cc1ccccc1)c1ccc2ccn(Cc3ccccc3)c2c1` (stereo not given) had a melting point of 148 to 150 °C.

Take `CC(C)Oc1ccc2nc[nH]c(=O)c2c1`: the melting point lay in the range of 206 to 208 °C.

Regarding `Cc1ccc(NC(=O)N2CCC(=C(F)c3cccc(Oc4ccc(C(F)(F)F)cn4)c3)CC2)cn1`, the melting point was 158 to 160 °C.

`OCCSC/C=C/c1ccc(Cc2cccnc2)cc1` showed a melting point of 73 to 74 °C.

Consider `C=CCNc1nc(NCCC)nc2c(C)csc12`, for which the melting point is 74 to 75 °C.

In the case of `CN(CCOc1ccc(N)cc1)CCc1ccc(N)cc1`, the melting point was 73 to 74 °C.

Turning to `COc1ccc(S(=O)(=O)N(Cc2ccccc2)C2(C(=O)NO)CCSCC2)cc1`, the melting point is 179 to 181 °C.

With `COc1ccc(Cc2ncc(CN3CCN(c4ccccc4OC)CC3)c3cc(OC)c(OC)cc23)cc1OC`, the melting point was in the range of 117 to 119 °C.

`O=C(NCCO)c1ccc(C(=O)NCCO)cc1` came in with a melting point of 227 to 229 °C.

Compound `Cc1cccc(-c2n[nH]cc2-c2ccc(F)c(-c3ccc[nH]3)c2)n1` had a melting point of 141 to 142 °C.

In the case of `O=C1OC(CO)CN2C1=Cc1ccsc1S2(=O)=O` (stereo not given), the melting point was in the range of 210 to 212 °C.

With `CCOc1cccc(OC)c1CN1CCC(=O)C(C(c2ccccc2)c2ccccc2)C1` (stereo not given), the melting point was 137 to 138 °C.

In the case of `CCN1CC(=O)N(c2c(C)cccc2Cl)C1=S`, the melting point was 124 to 126 °C.

The record behind these values is a melting point compilation (Tetko et al.; mined from patent text by program, amines drawn as free bases though some values may be those of a salt).
